The values below are quoted from earlier work in US11590241B2, “Nanoparticle conjugated synthetic opioid prodrugs and methods of their uses” (VIRGINIA COMMONWEALTH UNIVERSITY, priority 2016, dated 2023).

In one data set the test system is morphine-pelleted mice. The settings on record: U.S. Pat. No. 8,980,908.
In data set [1] the target is T1, MOR (Homo sapiens, UniProt P35372).
T1 construct: expressed in transfected cells; host or cells: CHO (Chinese hamster ovary) cells, membrane preparation
Conditions: read-out: Ki (nM) μ; [3H]naloxone; data from Li et al. 2009.

For another data set, the system named is mice. Conditions: parent compound, earlier data.
The target in data set [2] is T1, MOR. Conditions: data from Li et al. 2009.
The conditions of data set [3]: extensive hepatic first-pass metabolism.

T1 sequence (P35372 whole entry): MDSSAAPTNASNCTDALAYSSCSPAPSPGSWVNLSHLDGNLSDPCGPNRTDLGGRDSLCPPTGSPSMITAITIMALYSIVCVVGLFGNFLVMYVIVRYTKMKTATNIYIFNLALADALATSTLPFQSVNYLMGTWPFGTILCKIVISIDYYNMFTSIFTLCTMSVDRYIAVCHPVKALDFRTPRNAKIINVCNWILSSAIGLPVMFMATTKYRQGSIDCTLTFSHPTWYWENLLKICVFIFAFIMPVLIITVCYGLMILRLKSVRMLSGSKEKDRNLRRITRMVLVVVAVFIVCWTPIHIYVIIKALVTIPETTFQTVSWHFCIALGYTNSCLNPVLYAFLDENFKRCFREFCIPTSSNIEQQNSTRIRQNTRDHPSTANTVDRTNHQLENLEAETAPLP

As usually defined, the Ki is a measure of affinity in units of concentration, obtained from inhibition or displacement. What is called EC50 is the concentration that produces a half-maximal response. Take `O=C(Cc1ccncc1)N[C@@H]1CC[C@@]2(O)[C@H]3Cc4ccc(O)c5c4[C@@]2(CCN3CC2CC2)[C@H]1O5` [NAP, 17-cyclopropylmethyl-3,14 β-dihydroxy-4,5 α-epoxy-6 β-[(4-pyridyl)acetamido]morphinan]: the intestinal motility result in the data set with morphine-pelleted mice is given as “increase intestinal motility”. In addition, the Ki on MOR [1] is 0.37 ± 0.07 nM. Besides, in the data set on mice, the “AD50, blocking the antinociceptive effect of morphine” value is 4.98 mg/kg and the “agonist activity (antinociception)” value was “did not carry any significant agonist activity”. For the same compound, the “MOR [35S]GTPγS Binding % Emax of DAMGO” value on MOR [2] is 22.7 ± 0.8%. For the same compound, on MOR [2] (read-out: MOR [35S]GTPγS Binding EC50), the EC50 was 1.14 ± 0.38 nM.
Take `C=CCN1CC[C@]23c4c5ccc(O)c4O[C@H]2C(=O)CC[C@@]3(O)[C@H]1C5` [Naloxone]: the oral bioavailability in data set [3] is reported as about 2%.
